This is an account of results in US7524853B2 (Solvay Pharmaceuticals B.V., priority 2003, dated 2009).

Holding throughout (type): cell-based
In assay [1] the target is T1, 17β-hydroxysteroid dehydrogenase type 2 (17β-HSD type 2) (Homo sapiens, UniProt P37059).
T1 construct: expressed in transfected cells; host or cells: MCF-7
T1 sequence (P37059 1-387): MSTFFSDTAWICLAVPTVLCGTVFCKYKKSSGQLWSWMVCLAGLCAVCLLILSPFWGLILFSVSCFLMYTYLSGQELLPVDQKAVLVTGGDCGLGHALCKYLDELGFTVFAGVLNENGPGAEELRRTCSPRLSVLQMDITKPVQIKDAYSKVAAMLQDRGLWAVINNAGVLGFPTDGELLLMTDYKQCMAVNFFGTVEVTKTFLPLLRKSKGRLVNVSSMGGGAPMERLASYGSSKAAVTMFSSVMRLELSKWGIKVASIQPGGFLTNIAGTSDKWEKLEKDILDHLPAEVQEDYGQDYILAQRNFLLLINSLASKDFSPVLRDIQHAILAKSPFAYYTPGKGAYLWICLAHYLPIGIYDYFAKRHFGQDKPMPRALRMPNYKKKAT
Briefly: Inhibition of 17β-HSD type 2 in MCF-7 cells stably expressing the isoenzyme (tritium labeled estradiol conversion, HPLC). As to conditions: MCF7, MCF-7 cells expressing 17β-HSD type 2, 2 nM tritium labeled estradiol; for inhibition at 1 µM: 1 μM test compound, read-out: % Inhibition HSD2 1 μM; for inhibition at 10 µM: 10 μM test compound, read-out: % Inhibition HSD2 10 μM. The method, boiled down: (§1)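 Whole-cell MCF-7 lines, one isoenzyme each; substrate 2 nM ³H-estrone (type 1), ³H-estradiol (type 2) or ³H-androstenedione (type 3) in growth medium + compound at two concentrations. TCA stop, HPLC-radioflow read; % inhibition from reduced conversion vs no-compound control.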

In assay [2] the target is T2, 17β-hydroxysteroid dehydrogenase type 3 (17β-HSD type 3) (Homo sapiens, UniProt P37058).
T2 construct: expressed in transfected cells; host or cells: MCF-7
T2 sequence (P37058 1-310): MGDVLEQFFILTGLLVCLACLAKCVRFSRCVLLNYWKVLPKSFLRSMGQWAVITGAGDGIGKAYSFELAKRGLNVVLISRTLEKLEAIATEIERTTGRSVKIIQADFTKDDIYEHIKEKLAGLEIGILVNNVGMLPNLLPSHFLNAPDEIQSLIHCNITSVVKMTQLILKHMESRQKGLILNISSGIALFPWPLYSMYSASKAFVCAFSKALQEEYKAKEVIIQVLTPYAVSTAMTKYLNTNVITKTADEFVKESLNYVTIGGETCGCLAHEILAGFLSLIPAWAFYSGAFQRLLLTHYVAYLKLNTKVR
Briefly: Inhibition of 17β-HSD type 3 in MCF-7 cells stably expressing the isoenzyme (tritium labeled androstenedione conversion, HPLC). The conditions noted are these: MCF7, MCF-7 cells expressing 17β-HSD type 3, 2 nM tritium labeled androstenedione; for inhibition at 1 µM: 1 μM test compound, read-out: % Inhibition HSD3 1 μM; for inhibition at 10 µM: 10 μM test compound, read-out: % Inhibition HSD3 10 μM. The method, boiled down:
as §1

Assay [3] concerns the target T3, 17β-hydroxysteroid dehydrogenase type 1 (17β-HSD type 1) (Homo sapiens, UniProt P14061).
T3 construct: expressed in transfected cells; host or cells: MCF-7
T3 sequence (P14061 1-328): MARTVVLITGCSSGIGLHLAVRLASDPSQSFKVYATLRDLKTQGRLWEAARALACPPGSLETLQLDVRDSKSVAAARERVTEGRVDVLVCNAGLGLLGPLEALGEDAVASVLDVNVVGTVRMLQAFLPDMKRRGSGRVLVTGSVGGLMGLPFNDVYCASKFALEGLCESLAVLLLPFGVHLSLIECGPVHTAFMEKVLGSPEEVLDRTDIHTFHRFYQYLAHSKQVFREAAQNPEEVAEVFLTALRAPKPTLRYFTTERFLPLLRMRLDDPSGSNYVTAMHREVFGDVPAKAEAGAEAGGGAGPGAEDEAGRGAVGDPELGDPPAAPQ
Put plainly: Inhibition of 17β-HSD type 1 in MCF-7 cells stably expressing the isoenzyme (tritium labeled estrone conversion, HPLC). The conditions noted are these: MCF7, MCF-7 cells expressing 17β-HSD type 1, 2 nM tritium labeled estrone; for inhibition at 1 µM: 1 μM test compound, read-out: % Inhibition HSD1 1 μM; for inhibition at 10 µM: 10 μM test compound, read-out: % Inhibition HSD1 10 μM. The procedure, abridged: as §1

Each structure is given as a SMILES string.

For `COc1cc(-c2nc3sc4c(c3c(=O)n2CC(C)C)CCC(Br)C4=O)cc(OC)c1OC` (stereo not drawn) [No. 115, 7-Bromo-3-isobutyl-2-(3,4,5-trimethoxyphenyl)-6,7-dihydro-3H,5H-benzo[4,5]thieno[2,3-d]pyrimidine-4,8-dione], the inhibition at 1 µM in assay [1] came out at 18.7%; in assay [2] it was 7.6%; in assay [3], 22.9%. Also, the inhibition at 10 µM in assay [1] was found to be 19.5%; in assay [2], 20.7%; in assay [3] it was 70.3%.
As for `COC(=O)c1nc2sc3c(c2c(=O)n1Cc1ccccc1)CCCC3=O` [No. 32, 3-Benzyl-4,8-dioxo-3,4,5,6,7,8-hexahydro-benzo[4,5]thieno[2,3-d]pyrimidine-2-carboxylic acid methyl ester], the inhibition at 1 µM came to 9.8% in assay [1], 9.6% in assay [2] and 37.2% in assay [3]. Besides, the inhibition at 10 µM in assay [1] is 19.5%; in assay [2], 70%; in assay [3], 86.6%.
`COc1cc(-c2nc3sc4c(c3c(=O)n2Cc2ccccc2)CCCC4)cc(OC)c1OC` [No. 1, 3-benzyl-2-(3,4,5-trimethoxyphenyl)-5,6,7,8-tetrahydro-3H-benzo[4,5]thieno[2,3-d]pyrimidin-4-one]: the results for the inhibition at 1 µM in assay [1], in assay [2] and in assay [3] were 7.3%, -8.8% and 0.8%, respectively. Also, the inhibition at 10 µM turned out to be 17.4% in assay [1], 6.3% in assay [2] and 21.1% in assay [3].
On to `COc1cc(-c2nc3sc4c(O)cc(C)cc4c3c(=O)n2Cc2ccccc2)c(Br)c(OC)c1OC` [No. 690, 3-Benzyl-2-(2-bromo-3,4,5-trimethoxyphenyl)-8-hydroxy-6-methyl-3H-benzo[4,5]thieno[2,3-d]pyrimidin-4-one], for which the figures for the inhibition at 1 µM in assay [1], in assay [2] and in assay [3] were 14.2%, -2.7% and 17.3%, respectively. The inhibition at 10 µM stood at 23.5% in assay [1], 6.4% in assay [2] and 19.2% in assay [3].
For the compound `COc1cc(-c2nc3sc4c(c3c(=O)n2Cc2ccccc2)CCC(Br)C4=O)cc(OC)c1OC` (stereo not drawn) [No. 46, 3-benzyl-7-bromo-2-(3,4,5-trimethoxyphenyl)-6,7-dihydro-3H,5H-benzo[4,5]thieno[2,3-d]pyrimidine-4,8-dione], the inhibition at 1 µM in assay [1] amounted to 44%; in assay [2] it was 31.4%; in assay [3] it was 32.1%. In addition, the inhibition at 10 µM worked out at 20.9% in assay [1], 37.1% in assay [2] and 72.2% in assay [3].
As for `Cc1nc2sc3c(c2c(=O)n1-c1ccccc1)CCC(Br)C3=O` (stereo not drawn) [No. 44, 7-Bromo-2-methyl-3-phenyl-6,7-dihydro-3H,5H-benzo[4,5]thieno[2,3-d]pyrimidine-4,8-dione], the figures for the inhibition at 1 µM in assay [1], in assay [2] and in assay [3] were 2.2%, -22.5% and 10.5%, respectively. Also, the results for the inhibition at 10 µM in assay [1], in assay [2] and in assay [3] were 16.3%, 26.3% and 55.6%, respectively.
Regarding `CCCCn1c(-c2cc(OC)c(OC)c(OC)c2)nc2sc3c(O)c(Br)ccc3c2c1=O` [No. 90, 7-Bromo-3-butyl-8-hydroxy-2-(3,4,5-trimethoxyphenyl)-3H-benzo[4,5]thieno[2,3-d]pyrimidin-4-one], the figures for the inhibition at 1 µM in assay [1], in assay [2] and in assay [3] were 16.1%, 4% and 15.5%, respectively. Moreover, the inhibition at 10 µM was 22% in assay [1], 11.3% in assay [2] and 24.7% in assay [3].
As for `COc1cc(-c2nc3sc4c(c3c(=O)n2Cc2ccccc2)C(C)CCC4=O)cc(OC)c1OC` (stereo not drawn) [No. 684, 3-Benzyl-5-methyl-2-(3,4,5-trimethoxyphenyl)-6,7-dihydro-3H,5H-benzo[4,5]thieno[2,3-d]pyrimidin-4,8-dione], the inhibition at 1 µM in assay [1] was determined as 9.2%; in assay [2] it was 24.7%; in assay [3], 24.6%. For the same compound, the inhibition at 10 µM amounted to 11% in assay [1], 10.5% in assay [2] and 63.3% in assay [3].
As to `CCCCn1c(-c2cc(OC)c(OC)c(OC)c2)nc2sc3c(c2c1=O)CCCC3=O` [No. 86, 3-Butyl-2-(3,4,5-trimethoxyphenyl)-6,7-dihydro-3H,5H-benzo[4,5]thieno[2,3-d]pyrimidine-4,8-dione], the values for the inhibition at 1 µM in assay [1], in assay [2] and in assay [3] were 18.9%, 11.3% and 23.6%, respectively. Further, the results for the inhibition at 10 µM in assay [1], in assay [2] and in assay [3] were 19.5%, 45.7% and 46.6%, respectively.
Turning to `CCOC(=O)C1=Cc2sc3nc(-c4ccc(OC)cc4)n(Cc4ccccc4)c(=O)c3c2CC1` [No. 15, 3-Benzyl-2-(p-methoxyphenyl)-4-oxo-3,4,5,6-tetrahydro-benzo[4,5]thieno[2,3-d]pyrimidine-7-carboxylic acid ethyl ester], the results for the inhibition at 1 µM in assay [1], in assay [2] and in assay [3] were -5.5%, 18.5% and -9.9%, respectively. Further, the inhibition at 10 µM is 7.3% in assay [1], 61.2% in assay [2] and -6.5% in assay [3].
On to `COc1ccc(-c2nc3sc4c(c3c(=O)n2Cc2ccccc2)CCCC4)cc1` [No. 12, 3-Benzyl-2-(p-methoxyphenyl)-5,6,7,8-tetrahydro-3H-benzo[4,5]thieno[2,3-d]pyrimidin-4-one], for which the values for the inhibition at 1 µM in assay [1], in assay [2] and in assay [3] were 4.2%, 3.1% and 6.3%, respectively. Also, the inhibition at 10 µM in assay [1] came out at 12.3%; in assay [2] it was 55.5%; in assay [3] it was 34.5%.
As to `COc1cc(-c2nc3sc4c(O)cccc4c3c(=O)n2CC(C)C)c(Br)c(OC)c1OC` [No. 117, 8-Hydroxy-3-isobutyl-2-(2-bromo-3,4,5-trimethoxyphenyl)-3H-benzo[4,5]thieno[2,3-d]pyrimidin-4-one], the inhibition at 1 µM in assay [1] stood at 19.7%; in assay [2], 19.7%; in assay [3], 39.3%. Further, the inhibition at 10 µM in assay [1] was 20.7%; in assay [2] it was 44.1%; in assay [3], 62.2%.
As for `COc1cc(-c2nc3sc4c(c3c(=O)n2-c2ccccc2)CCCC4=O)cc(OC)c1OC` [No. 11, 3-Phenyl-2-(3,4,5-trimethoxyphenyl)-6,7-dihydro-3H,5H-benzo[4,5]thieno[2,3-d]pyrimidine-4,8-dione], the inhibition at 1 µM in assay [1] is -5.3%; in assay [2], -5.6%; in assay [3], 14.2%. The inhibition at 10 µM in assay [1] came to 12.3%; in assay [2], 12.8%; in assay [3], 27.7%.
In the case of `CCCc1nc2sc3c(c2c(=O)n1Cc1cc(Br)ccc1OC)CCC(Br)(Br)C3=O` [No. 97, 7,7-Dibromo-3-(5-bromo-2-methoxybenzyl)-2-propyl-6,7-dihydro-3H,5H-benzo[4,5]thieno[2,3-d]pyrimidine-4,8-dione], the inhibition at 1 µM in assay [1] is 25.2%; in assay [2] it was -5.9%; in assay [3], 18.1%. Further, the inhibition at 10 µM was 44.6% in assay [1], 11.5% in assay [2] and 29.4% in assay [3].

In general, inhibition refers to the drop in the measured response relative to a control, in per cent.
